# Measurements as given in patent US10016434B2, “Methods for the treatment of HER2 amplified cancer” (Pharmacyclics LLC, priority 2013, dated 2018).
# Entries after “also recorded” stand apart in the source; their conditions may differ. Read-outs that look alike come from different tables or passages of the source.
# Experiments:
# [1] = system: HER2 and HER4 activation in BT-474 cells; assay: HER2 and HER4 activation assessed by phosphorylation of downstream targets (FIG. 16); assay type: cell-based; conditions: BT-474, ibrutinib compared to AVL-292
# BTK = target: T1, BTK (Homo sapiens, UniProt Q06187); assay: Covalent binding to Btk, DoHH2 cells with PCI-33380 (FIG. 24); conditions: inhibitors 1 h, then PCI-33380 2 uM 30 min
# T1 construct: endogenous in cells; host or cells: DoHH2
# T1 sequence (Q06187 whole entry): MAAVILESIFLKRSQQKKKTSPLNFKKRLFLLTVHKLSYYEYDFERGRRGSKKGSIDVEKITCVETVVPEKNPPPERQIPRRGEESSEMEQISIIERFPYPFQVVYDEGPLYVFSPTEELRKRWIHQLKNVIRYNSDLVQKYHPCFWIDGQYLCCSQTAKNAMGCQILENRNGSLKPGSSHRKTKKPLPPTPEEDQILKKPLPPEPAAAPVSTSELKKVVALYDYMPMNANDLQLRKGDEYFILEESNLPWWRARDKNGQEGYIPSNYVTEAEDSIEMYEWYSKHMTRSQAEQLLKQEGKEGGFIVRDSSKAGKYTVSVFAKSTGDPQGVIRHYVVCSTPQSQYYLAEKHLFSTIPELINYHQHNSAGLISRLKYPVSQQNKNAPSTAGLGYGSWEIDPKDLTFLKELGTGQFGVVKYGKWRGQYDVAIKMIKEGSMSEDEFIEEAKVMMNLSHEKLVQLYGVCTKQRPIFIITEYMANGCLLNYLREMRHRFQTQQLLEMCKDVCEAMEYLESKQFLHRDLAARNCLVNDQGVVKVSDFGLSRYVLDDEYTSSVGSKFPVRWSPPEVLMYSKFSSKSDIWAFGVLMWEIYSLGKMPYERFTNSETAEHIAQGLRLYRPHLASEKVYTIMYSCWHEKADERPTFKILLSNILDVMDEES
# [2] = system: EGFR, HER2, HER4 and downstream targets (MEK, Akt signaling pathway); assay: Signaling pathway inhibition (FIGS. 19-21); assay type: cell-based; conditions: for inhibition of MEK and Akt signaling pathway compared with EGFR and HER2 signaling pathway: FIG. 21
# Erb4 = Erb4 (Homo sapiens, UniProt Q15303); assay: Kinase activity assay (LabChip platform, Nanosyn)
# Chain of Erb4 (Q15303 26-1292 isoform Q15303-3 limits assumed): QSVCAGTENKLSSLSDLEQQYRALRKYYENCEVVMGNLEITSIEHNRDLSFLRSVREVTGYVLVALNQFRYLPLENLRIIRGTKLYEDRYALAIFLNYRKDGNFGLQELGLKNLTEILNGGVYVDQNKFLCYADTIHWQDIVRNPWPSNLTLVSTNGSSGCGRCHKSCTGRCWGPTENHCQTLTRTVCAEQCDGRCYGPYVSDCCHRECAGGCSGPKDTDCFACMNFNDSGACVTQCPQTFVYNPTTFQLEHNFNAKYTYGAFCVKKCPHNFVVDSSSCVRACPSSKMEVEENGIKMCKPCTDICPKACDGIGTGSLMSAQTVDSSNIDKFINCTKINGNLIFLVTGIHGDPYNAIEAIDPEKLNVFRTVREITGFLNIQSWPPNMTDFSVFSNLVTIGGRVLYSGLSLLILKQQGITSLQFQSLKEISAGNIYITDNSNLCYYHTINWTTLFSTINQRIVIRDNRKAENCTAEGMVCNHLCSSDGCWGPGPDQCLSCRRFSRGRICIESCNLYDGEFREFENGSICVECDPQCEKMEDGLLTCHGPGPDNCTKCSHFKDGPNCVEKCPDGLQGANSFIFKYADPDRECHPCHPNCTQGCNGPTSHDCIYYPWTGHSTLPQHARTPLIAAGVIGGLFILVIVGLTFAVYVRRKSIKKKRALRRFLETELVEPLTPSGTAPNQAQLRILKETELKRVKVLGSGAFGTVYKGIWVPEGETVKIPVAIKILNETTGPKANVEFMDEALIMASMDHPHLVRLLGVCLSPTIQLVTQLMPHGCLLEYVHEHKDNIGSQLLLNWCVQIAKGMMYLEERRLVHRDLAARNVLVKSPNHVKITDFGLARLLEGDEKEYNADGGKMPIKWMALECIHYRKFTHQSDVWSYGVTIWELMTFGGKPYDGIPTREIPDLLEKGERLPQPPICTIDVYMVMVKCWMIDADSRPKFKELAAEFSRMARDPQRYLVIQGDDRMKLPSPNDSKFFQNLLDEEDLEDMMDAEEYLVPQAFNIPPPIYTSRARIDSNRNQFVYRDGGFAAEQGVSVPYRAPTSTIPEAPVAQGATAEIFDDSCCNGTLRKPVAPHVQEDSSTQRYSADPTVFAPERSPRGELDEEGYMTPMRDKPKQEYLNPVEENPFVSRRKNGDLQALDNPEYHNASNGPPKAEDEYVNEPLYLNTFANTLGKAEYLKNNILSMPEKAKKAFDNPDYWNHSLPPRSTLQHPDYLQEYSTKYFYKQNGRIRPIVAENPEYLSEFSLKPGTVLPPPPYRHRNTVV
# SK-BR3 cells [3] = assay: Cell growth inhibition wash out assay; assay type: cell-based; conditions: SK-BR3, 1 hour exposure (0.1, 0.25, 0.5 μM), 6 days culture
# EGFR = EGFR (Homo sapiens, UniProt P00533); assay: EGFR dialysis assay; assay type: biochemical; conditions: 10 nM or 100 nM, 1 h pre-incubation, 24 h dialysis
# Chain of EGFR (P00533 25-1210): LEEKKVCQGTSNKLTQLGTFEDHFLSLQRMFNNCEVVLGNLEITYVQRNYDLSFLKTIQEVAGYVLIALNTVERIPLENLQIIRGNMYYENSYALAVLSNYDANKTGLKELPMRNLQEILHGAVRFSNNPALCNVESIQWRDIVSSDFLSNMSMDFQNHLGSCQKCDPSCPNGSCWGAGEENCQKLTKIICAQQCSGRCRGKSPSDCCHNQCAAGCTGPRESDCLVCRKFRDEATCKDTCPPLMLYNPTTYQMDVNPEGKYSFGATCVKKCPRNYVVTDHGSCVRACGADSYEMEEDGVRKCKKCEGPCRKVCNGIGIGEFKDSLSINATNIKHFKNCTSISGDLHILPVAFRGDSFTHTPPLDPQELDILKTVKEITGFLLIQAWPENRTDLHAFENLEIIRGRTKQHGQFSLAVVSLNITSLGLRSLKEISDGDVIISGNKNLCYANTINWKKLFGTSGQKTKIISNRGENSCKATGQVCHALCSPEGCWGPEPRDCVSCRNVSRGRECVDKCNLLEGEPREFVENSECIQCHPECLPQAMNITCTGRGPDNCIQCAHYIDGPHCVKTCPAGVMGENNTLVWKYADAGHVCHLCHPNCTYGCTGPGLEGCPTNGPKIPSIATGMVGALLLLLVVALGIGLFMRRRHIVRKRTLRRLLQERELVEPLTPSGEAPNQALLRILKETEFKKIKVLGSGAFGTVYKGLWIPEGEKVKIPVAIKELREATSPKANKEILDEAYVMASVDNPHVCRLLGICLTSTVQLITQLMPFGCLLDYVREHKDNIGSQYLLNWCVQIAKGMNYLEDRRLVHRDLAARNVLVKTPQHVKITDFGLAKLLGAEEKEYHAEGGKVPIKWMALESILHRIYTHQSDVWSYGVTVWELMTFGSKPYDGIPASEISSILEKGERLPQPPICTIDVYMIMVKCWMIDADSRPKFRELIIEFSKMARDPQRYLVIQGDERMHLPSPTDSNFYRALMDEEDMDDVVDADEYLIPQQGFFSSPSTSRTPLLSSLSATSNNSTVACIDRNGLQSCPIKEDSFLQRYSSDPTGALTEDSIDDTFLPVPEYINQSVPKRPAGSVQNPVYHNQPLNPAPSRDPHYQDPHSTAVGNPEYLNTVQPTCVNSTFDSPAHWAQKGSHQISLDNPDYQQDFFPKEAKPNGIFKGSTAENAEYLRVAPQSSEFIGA
# Experimental: Control samples included: DMSO+5 nM EGFR dialyzed in the identical manner. […] Initial velocity was determined in the samples.
# SK-BR3 cells [4] = assay: Cell cycle analysis; assay type: cell-based; conditions: SK-BR3, 1 h exposure, measured at 24 h
# ITK = ITK (Homo sapiens, UniProt Q08881); assay: Kinase activity assay (LabChip platform, Nanosyn); assay type: biochemical; conditions: recombinant enzyme 5 nM, substrate 1 μM
# EGFR (ErbB1) = EGFR (ErbB1) (Homo sapiens, UniProt P00533); assay: Kinase activity assay (LabChip platform, Nanosyn); conditions: recombinant enzyme 5 nM, substrate 1 μM
# BT-474 cells [5] = assay: Cell proliferation assay with alamar blue; conditions: BT-474, 3 days continuous exposure
# ErB2 = ErB2 (Homo sapiens, UniProt P04626); assay: Kinase activity assay (LabChip platform, Nanosyn); conditions: recombinant enzyme 5 nM, substrate 1 μM
# Chain of ErB2 (P04626 23-1255): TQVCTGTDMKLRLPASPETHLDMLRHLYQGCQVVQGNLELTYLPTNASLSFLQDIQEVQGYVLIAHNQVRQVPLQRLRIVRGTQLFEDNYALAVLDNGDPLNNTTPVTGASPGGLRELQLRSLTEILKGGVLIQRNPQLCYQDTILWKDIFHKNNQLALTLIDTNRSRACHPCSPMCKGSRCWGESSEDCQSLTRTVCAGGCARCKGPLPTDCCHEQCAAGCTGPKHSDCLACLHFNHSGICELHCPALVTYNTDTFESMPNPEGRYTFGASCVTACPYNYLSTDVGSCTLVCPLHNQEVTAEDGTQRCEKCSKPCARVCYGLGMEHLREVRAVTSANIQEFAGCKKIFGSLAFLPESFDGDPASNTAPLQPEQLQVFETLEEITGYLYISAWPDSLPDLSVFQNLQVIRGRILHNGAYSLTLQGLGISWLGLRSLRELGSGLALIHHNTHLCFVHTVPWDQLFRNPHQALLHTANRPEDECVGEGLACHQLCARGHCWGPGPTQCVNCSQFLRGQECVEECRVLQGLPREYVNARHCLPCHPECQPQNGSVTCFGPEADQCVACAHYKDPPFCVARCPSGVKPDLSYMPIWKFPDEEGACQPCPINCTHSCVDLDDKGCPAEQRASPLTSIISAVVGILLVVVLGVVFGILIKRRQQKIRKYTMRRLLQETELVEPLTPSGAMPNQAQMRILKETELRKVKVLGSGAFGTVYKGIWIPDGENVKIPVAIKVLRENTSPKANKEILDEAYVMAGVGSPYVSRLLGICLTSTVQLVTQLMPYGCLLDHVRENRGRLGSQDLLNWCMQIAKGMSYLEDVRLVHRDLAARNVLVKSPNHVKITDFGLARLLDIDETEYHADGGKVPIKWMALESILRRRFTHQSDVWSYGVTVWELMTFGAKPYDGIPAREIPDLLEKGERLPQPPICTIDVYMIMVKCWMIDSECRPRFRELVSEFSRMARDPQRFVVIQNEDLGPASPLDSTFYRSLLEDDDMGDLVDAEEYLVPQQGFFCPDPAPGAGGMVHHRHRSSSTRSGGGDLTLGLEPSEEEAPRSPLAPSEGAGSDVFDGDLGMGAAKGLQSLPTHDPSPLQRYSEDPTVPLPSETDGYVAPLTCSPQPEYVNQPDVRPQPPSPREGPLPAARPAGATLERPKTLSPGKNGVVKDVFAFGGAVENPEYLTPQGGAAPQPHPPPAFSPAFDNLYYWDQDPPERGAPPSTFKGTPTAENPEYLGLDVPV
# MDA-MB-453 cells [6] = assay: Resistance induced by heregulin; assay type: cell-based; conditions: MDA-MB-453, higher concentration of ibrutinib
# [7] = system: ErbB kinases and down-stream signaling pathways; assay: Washout experiment, immunoblotting of total and phosphorylated proteins (FIG. 10); assay type: cell-based; conditions: BT474 and SKBR-3, 0.1 or 0.5 μM, various times, then cultured additional 2 hours
# Experimental: Cells were washed once with cold PBS and lysed in 1× sample buffer (Invitrogen). The whole cell lysate was boiled, sonicated, and then loaded onto a 4-15% gradient SDS-PAGE gel. The proteins were transferred to PVDF membrane. After probing with antibodies, the detection was conducted using an Odyssey […] (Li-Cor). Paired mouse and rabbit antibodies were used to probe the total and corresponding phosphorylated proteins.
# LCK = LCK (Homo sapiens, UniProt P06239); assay: LCK dialysis assay; assay type: biochemical; conditions: 10 nM or 100 nM, 1 h pre-incubation, 24 h dialysis
# Chain of LCK (P06239 whole entry, species assumed): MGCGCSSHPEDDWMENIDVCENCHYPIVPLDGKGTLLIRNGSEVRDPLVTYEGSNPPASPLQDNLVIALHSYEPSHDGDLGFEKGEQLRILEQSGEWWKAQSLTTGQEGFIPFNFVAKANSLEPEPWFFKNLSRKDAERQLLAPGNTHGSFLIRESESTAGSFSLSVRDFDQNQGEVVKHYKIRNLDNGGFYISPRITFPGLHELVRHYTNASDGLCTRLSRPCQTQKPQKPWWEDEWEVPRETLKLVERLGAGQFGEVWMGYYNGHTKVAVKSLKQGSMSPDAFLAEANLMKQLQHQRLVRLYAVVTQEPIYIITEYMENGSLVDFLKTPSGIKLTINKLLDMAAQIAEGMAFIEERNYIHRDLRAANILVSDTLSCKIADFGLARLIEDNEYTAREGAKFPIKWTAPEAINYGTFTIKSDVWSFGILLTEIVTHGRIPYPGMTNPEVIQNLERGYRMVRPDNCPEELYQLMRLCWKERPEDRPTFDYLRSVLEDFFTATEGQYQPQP
# Experimental: Control samples included: DMSO+5 nM LCK dialyzed in the identical manner. […] Initial velocity was determined in the samples.
# BT-474 cells [8] = assay: Tumorsphere culture; assay type: cell-based; conditions: BT-474, 1 hour treatment, wash out, seven days culture
# TXK = TXK (Homo sapiens, UniProt P42681); assay: Kinase activity assay (LabChip platform, Nanosyn); assay type: biochemical; conditions: recombinant enzyme 5 nM, substrate 1 μM
# [9] = system: aldehyde dehydrogenase (ALDH) in BT-474 cells; assay: Aldefluor assay
# MDA-MB-453 xenograft = assay: Mouse MDA-MB-453 xenograft; assay type: in vivo
# BLK = BLK (Homo sapiens, UniProt P51451); assay: Kinase activity assay (LabChip platform, Nanosyn); assay type: biochemical; conditions: recombinant enzyme 5 nM, substrate 1 μM
# BT-474 cells [10] = assay: Apoptosis assay (annexin-V / sub G0); assay type: cell-based
# JAK3 = JAK3 (Homo sapiens, UniProt P52333); assay: Kinase activity assay (LabChip platform, Nanosyn); assay type: biochemical; conditions: recombinant enzyme 5 nM, substrate 1 μM
# MDA-MB-453 cells [11] = assay: Cell proliferation assay with alamar blue
# HER4 = HER4 (Homo sapiens, UniProt Q15303); assay: HER4 dialysis assay; assay type: biochemical; conditions: 10 nM or 100 nM, 1 h pre-incubation, 24 h dialysis
# Chain of HER4 (Q15303 26-1292 isoform Q15303-3 limits assumed): as the sequence (Q15303 26-1292 isoform Q15303-3 limits assumed) above
# ErbB kinases = assay: Separate dialysis experiment on kinase inhibition (data not shown); assay type: biochemical
# UACC-893 cells = assay: Cell proliferation assay with alamar blue; assay type: cell-based; conditions: UACC-893, 3 days continuous exposure
# BT-474 cells [12] = assay: Resistance induced by heregulin; assay type: cell-based; conditions: BT-474, higher concentration of ibrutinib
# TEC = TEC (Homo sapiens, UniProt P42680); assay: Kinase activity assay (LabChip platform, Nanosyn); assay type: biochemical; conditions: recombinant enzyme 5 nM, substrate 1 μM
# BT-474 cells [13] = assay: Cell growth inhibition wash out assay; assay type: cell-based; conditions: BT-474, 1 hour exposure (0.1, 0.25, 0.5 μM), 6 days culture
# HER signaling pathway = assay: One hour treatment followed by washout, signaling pathways (FIG. 33); assay type: cell-based
# [14] = system: Btk signaling pathways in Mino cells; assay: Signaling pathways in B cells (FIG. 23); assay type: cell-based
# SK-BR3 cells [15] = assay: Cell proliferation assay with alamar blue; conditions: SK-BR3, 3 days continuous exposure
# BT-474 cells [16] = assay: Cell cycle analysis; assay type: cell-based; conditions: BT-474, 1 h exposure, measured at 24 h
structure (smiles),measurement,setting,value
"C=CC(=O)Nc1cccc(Nc2nc(Nc3ccc(OCCOC)cc3)ncc2F)c1 [AVL-292, reference compound]","inhibition of HER2 and HER4 activation (phosphorylation of downstream targets, such as AKT)",[1],only ibrutinib inhibited
"COc1cc2ncnc(Nc3ccc(F)c(Cl)c3)c2cc1NC(=O)/C=C/CN1CCCCC1 [dacomitinib, reference compound]",covalent binding to Btk,BTK,did not
same,inhibition of EGFR and downstream targets,[2]; FIG. 20,less effective
"COc1cc2ncnc(Nc3ccc(F)c(Cl)c3)c2cc1OCCCN1CCOCC1 [gefitinib, reference compound]",HER4 inhibitory activity compared to ibrutinib,Erb4; stated without source,lower HER2/4 inhibitory activity
"C=CC(=O)N1CCC[C@@H](n2nc(-c3ccc(Oc4ccccc4)cc3)c3c(N)ncnc32)C1 [ibrutinib, (R)-1-(3-(4-amino-3-(4-phenoxyphenyl)-1H-pyrazolo[3,4-d]pyrimidin-1-yl)piperidin-1-yl)prop-2-en-1-one]",growth inhibitory effect after wash out,SK-BR3 cells [3],sustained and was dose dependent
same,reversibility of EGFR inhibition after dialysis,EGFR,irreversible inhibition
same,reversibility of EGFR inhibition after dialysis,EGFR; listed as Ibrutinib,irreversibly inhibits
same,cell cycle effect,SK-BR3 cells [4],G1 arrest
same,inhibition of ITK,ITK,able to inhibit
same,inhibition of EGFR (ErbB1),EGFR (ErbB1),able to inhibit; also recorded: effective in inhibiting
same,growth inhibitory effect,BT-474 cells [5],sensitive to the growth inhibitory effect; also recorded: confirmed ibrutinib inhibitory activity
same,inhibition of ErB2,ErB2,able to inhibit; also recorded: effective in inhibiting
same,overcoming resistance induced by heregulin,MDA-MB-453 cells [6],able to overcome resistance induced by heregulin
same,inhibition of ErbB kinases and down-stream signaling pathways after washout,[7],"persisted after ibrutinib washout, and was time and concentration dependent"
same,reversibility of LCK inhibition after dialysis,LCK,reversible inhibition
same,reversibility of LCK inhibition after dialysis,LCK; listed as Ibrutinib,reversibly inhibits
same,inhibition of Erb4,"Erb4; recombinant enzyme 5 nM, substrate 1 μM",able to inhibit; also recorded: effective in inhibiting
same,tumorsphere growth (size),BT-474 cells [8],inhibited tumorsphere growth
same,tumorsphere number,BT-474 cells [8],without affecting tumorsphere number
same,inhibition of TXK,TXK,able to inhibit
same,putative stem-like subpopulation of breast cancer cells,"[9]; BT-474, one hour or continuous treatment",decreased
same,aldehyde dehydrogenase activity,"[9]; BT-474, short exposures to high concentrations or continuous exposure to low concentration",decreased aldehyde dehydrogenase activity
same,solid tumor growth (tumor volume),MDA-MB-453 xenograft,inhibited solid tumor growth
same,inhibition of BLK,BLK,able to inhibit
same,apoptosis (annexin-V positivity or sub G0),"BT-474 cells [10]; BT-474, continuous treatment 3-day, with or without caspase inhibitor Q-VD-OPH",dramatic apoptosis which was caspase-dependent
same,apoptosis (cells in sub G0),"BT-474 cells [10]; BT-474, one hour treatment, 6 days after the exposure",low level of apoptosis
same,inhibition of JAK3,JAK3,able to inhibit
same,growth inhibitory effect,"MDA-MB-453 cells [11]; MDA-MB-453, 3 days continuous exposure",sensitive to the growth inhibitory effect; also recorded: confirmed ibrutinib inhibitory activity
same,inhibition of cell growth compared to gefitinib,"MDA-MB-453 cells [11]; MDA-MB-453, fluorescence-based assay",more potent than gefitinib
same,reversibility of HER4 inhibition after dialysis,HER4,irreversible inhibition
same,reversibility of HER4 inhibition after dialysis,HER4; listed as Ibrutinib,irreversibly inhibits
same,kinase inhibition after dialysis,ErbB kinases,dialysis resistant
same,growth inhibitory effect,UACC-893 cells,sensitive to the growth inhibitory effect
same,overcoming resistance induced by heregulin,BT-474 cells [12],able to overcome resistance induced by heregulin
same,inhibition of TEC,TEC,able to inhibit
same,growth inhibitory effect after wash out,BT-474 cells [13],sustained and was dose dependent
same,inhibitory effect on HER signaling pathway after washout,HER signaling pathway; day 6,lasting inhibitory effect even after day 6
same,inhibitory effect on HER signaling pathway after washout,"HER signaling pathway; day 6, listed as Ibrutinib",long-lasting inhibitory effect even after day 6
same,inhibitory effect on Btk signaling pathways in B cells,[14],selective inhibitory effect
same,inhibitory effect on Btk signaling pathways in B cells,[14]; listed as Ibrutinib,selectively inhibits
same,growth inhibitory effect,SK-BR3 cells [15],sensitive to the growth inhibitory effect; also recorded: confirmed ibrutinib inhibitory activity
same,"inhibition of HER2 and HER4 activation (phosphorylation of downstream targets, such as AKT)",[1],only ibrutinib inhibited HER2 and HER4 activation
same,cell cycle effect,BT-474 cells [16],G1 arrest
same,IC50 toward EGFR compared with HER2 and HER4,[2]; FIG. 19B,higher IC50
same,inhibition of MEK and Akt signaling pathway compared with EGFR and HER2 signaling pathway,[2],more potent inhibitor of MEK and Akt pathways than the EGFR and HER2 pathways
same,inhibition of MEK and Akt signaling pathway compared with EGFR and HER2 signaling pathway,[2]; listed as Ibrutinib,potent inhibitor of the MEK and Akt signaling pathway than of the EGFR and HER2 signaling pathway
CS(=O)(=O)CCNCc1ccc(-c2ccc3ncnc(Nc4ccc(OCc5cccc(F)c5)c(Cl)c4)c3c2)o1 [lapatinib],covalent binding to Btk,BTK,did not
CCOc1cc2ncc(C#N)c(Nc3ccc(OCc4ccccn4)c(Cl)c3)c2cc1NC(=O)/C=C/CN(C)C [neratinib],covalent binding to Btk,BTK,did not
